Here are results for 47 compounds from the supplement of paper PMC10290057.

The structures appear in SMILES notation. Where a name gives a salt, the structure may show the parent alone.

Test [1] deals with HCT116. The test can be described thus: efficacy (fitted maximal change in viability relative to DMSO control); higher = less cytotoxic (negative = loss of viability). The following applies: 48 h.
In test [2] the test system is HCT116. The test can be described thus: AC50 cell viability (CellTiter-Glo); higher = less potent. The following applies: 48 h.
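For AC50 cell viability (CellTiter-Glo) in this document: HCT116 colorectal carcinoma cells screened at five concentrations per compound, luminescent viability scaled between DMSO wells and empty wells on each plate, curves fitted per compound.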
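For efficacy (fitted maximal change in viability relative to DMSO control) in this document: Luminescence-based viability readout, five doses per compound, normalized against on-plate DMSO and empty-well controls, followed by dose-response curve fitting for every drug.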

On to `CN(C)C(=O)c1ccc([S+](=O)([O-])c2ccc(NC(=O)[C@@](C)(O)C(F)(F)F)c(Cl)c2)cc1` [AZD-7545], for which, in the test with HCT116 [1], the efficacy was -33.1%. In the test on HCT116 [2], the AC50 cell viability turned out to be 5.9 µM.
For `NC(=O)Nc1cc(-c2cccc(F)c2)sc1C(=O)N[C@H]1CCCNC1` [AZD-7762] the same measures were -101% and 0.833 µM.
Regarding `COc1ccc(-c2ccc3c(N4CCOC[C@@H]4C)nc(N4CCOC[C@@H]4C)nc3n2)cc1CO` [AZD-8055], the efficacy in the test on HCT116 [1] was -51.6%. The same compound displayed an AC50 cell viability with HCT116 [2] of 0.295 µM.
For `C[C@@H](Nc1cc(F)cc(F)c1)c1cc(C(=O)N(C)C)cc2c(=O)cc(N3CCOCC3)oc12` [AZD-8186] the same measures were -78.7% and 10.5 µM.
Regarding `CN1C(=O)\C(=C/C(=C1/NC2=C(F)C=C(I)C=C2)C(=O)NOCCO)C` [AZD-8330], the efficacy with HCT116 [1] was -68.6%. The compound further had an AC50 cell viability with HCT116 [2] of 0.00934 µM.
Take `CCN1CCN(Cc2ccc(Nc3ncc(F)c(-c4cc(F)c5nc(C)n(C(C)C)c5c4)n3)nc2)CC1` [Abemaciclib]: the efficacy in the test with HCT116 [1] is -109%. The AC50 cell viability with HCT116 [2] was 4.17 µM.
With `CN(C)Cc1c(C(=O)NCCOc2ccc(C(=O)NO)cc2)oc2ccccc12` [Abexinostat], the efficacy in the test with HCT116 [1] was -91.9%. The compound further showed an AC50 cell viability with HCT116 [2] of 0.263 µM.
In the case of `CC[C@@]1(O)C[C@H](O[C@H]2C[C@H](N(C)C)[C@H](O[C@H]3C[C@H](O)[C@H](O[C@H]4CCC(=O)[C@H](C)O4)[C@H](C)O3)[C@H](C)O2)c2c(cc3c(c2O)C(=O)c2c(O)cccc2C3=O)[C@H]1C(=O)OC` [Aclarubicin], the efficacy in the test on HCT116 [1] was -89.2%. Moreover, the AC50 cell viability with HCT116 [2] stood at 3.72 µM.
For `C\C1=C(\[C@@H](OC2=C1C=CC(=C2)O)C3=CC=C(OCCN4CCCCC4)C=C3)C5=CC=C(O)C=C5` [Acolbifene] the same measures were -94.9% and 18.6 µM.
For the compound `CC(C)C1NC(=O)C(NC(=O)C2=C3\N=C\4/C(=C(C)\C(=O)\C(=C4C(=O)NC5C(C)OC(=O)C(C(C)C)N(C)C(=O)CN(C)C(=O)C6CCCN6C(=O)C(NC5=O)C(C)C)N)OC3=C(C)C=C2)C(C)OC(=O)C(C(C)C)N(C)C(=O)CN(C)C(=O)C7CCCN7C1=O` (centres undefined) [Actinomycin D], in the test with HCT116 [1], the efficacy is -73.8%. The same compound registered an AC50 cell viability in the test on HCT116 [2] of 0.00144 µM.
For `CC(C)(C)C(=O)OCOP(=O)(COCCn1cnc2c(N)ncnc21)OCOC(=O)C(C)(C)C` [Adefovir dipivoxil] the same measures were -55.3% and 3.32 µM.
For `Cc1cc(O[C@@H](CCC(F)(F)F)c2ccc(C(=O)NCCC(=O)O)cc2)cc(C)c1-c1ccc(C(C)(C)C)cc1` [Adomeglivant], in the test on HCT116 [1], the efficacy is -115%. The compound further yielded an AC50 cell viability with HCT116 [2] of 26.3 µM.
Consider `CN(C)C/C=C/C(=O)Nc1cc2c(Nc3ccc(F)c(Cl)c3)ncnc2cc1O[C@H]1CCOC1` [Afatinib], for which the efficacy in the test on HCT116 [1] is -100%. For the same compound, in the test on HCT116 [2], the AC50 cell viability worked out at 4.68 µM.
With `O=C(Nc1cccc(Br)c1)c1cccc([S+](=O)([O-])N2CCCCCC2)c1` [Ak-7], the efficacy with HCT116 [1] is -59.7%. Further, the AC50 cell viability in the test with HCT116 [2] is 14.8 µM.
In the case of `CCC[S+]([O-])c1ccc2[nH]c(NC(=O)OC)nc2c1` (centres undefined) [Albendazole oxide], the efficacy in the test on HCT116 [1] is -45.3%. In the test with HCT116 [2], this compound showed an AC50 cell viability of 13.2 µM.
`COc1cccc2c1C(=O)c1c(O)c3c(c(O)c1C2=O)C[C@@](O)(/C(CO)=N/NC(=O)CCCCCN1C(=O)C=CC1=O)C[C@@H]3O[C@H]1C[C@H](N)[C@H](O)[C@H](C)O1` [Aldoxorubicin hydrochlorid]: the efficacy in the test with HCT116 [1] was -73.6%. In addition, the AC50 cell viability in the test with HCT116 [2] is 2.35 µM.
Consider `COC1=CC=CC(=C1/C2=N/CC3=C(N=C(NC4=CC(=C(C=C4)C(O)=O)OC)N=C3)C5=CC=C(Cl)C=C25)F` [Alisertib], for which the efficacy in the test with HCT116 [1] is -41.5%. The AC50 cell viability with HCT116 [2] amounted to 0.417 µM.
Take `O=C1c2cccc(O)c2C(=O)c2c(O)cc(CO)cc21` [Aloe-emodin]: the efficacy with HCT116 [1] was -47.2%. This compound gave an AC50 cell viability in the test with HCT116 [2] of 11.8 µM.
In the same order, the values of `Cc1nc(NC(=O)N2CCC[C@H]2C(N)=O)sc1-c1ccnc(C(C)(C)C(F)(F)F)c1` [Alpelisib] are -64.3% and 14.8 µM.
With `CO[C@H]1/C=C\C=C(\C)C(=O)NC2=CC(=O)C(NCCN(C)C)=C(C[C@@H](C)C[C@H](OC)[C@H](O)[C@@H](C)/C=C(/C)[C@@H]1OC(N)=O)C2=O` [Alvespimycin hydrochloride], in the test with HCT116 [1], the efficacy was -92.8%. In the test with HCT116 [2], the AC50 cell viability came to 0.372 µM.
With `CCN(CC)CCNC(=O)c1c(C)[nH]c(/C=C2/C(=O)Nc3ccc(-c4csc(-c5ccccc5)n4)cc32)c1C` [Amcasertib], the efficacy with HCT116 [1] is -99.9%. The same compound registered an AC50 cell viability with HCT116 [2] of 20.9 µM.
As for `CCCCc1oc2ccccc2c1C(=O)c1cc(I)c(OCCN(CC)CC)c(I)c1` [Amiodarone hydrochloride], the efficacy with HCT116 [1] is -71.8%. Besides, the AC50 cell viability in the test with HCT116 [2] was found to be 23.5 µM.
As to `CCCCCCCOc1ccc(CCC(N)(CO)CO)cc1C(F)(F)F` [Amiselimod hydrochloride], the efficacy with HCT116 [1] is -96.7%. The same compound gave an AC50 cell viability with HCT116 [2] of 10.5 µM.
As for `CN(C)CCN1C(=O)c2cccc3cc(N)cc(c23)C1=O` [Amonafide], the efficacy in the test on HCT116 [1] was -72.8%. In the test on HCT116 [2], this compound returned an AC50 cell viability of 4.17 µM.
As for `CC(=O)[C@]1(N)Cc2c(O)c3c(c(O)c2[C@@H](O[C@H]2C[C@H](O)[C@H](O)CO2)C1)C(=O)c1ccccc1C3=O` [Amrubicin], the efficacy in the test on HCT116 [1] is -75.8%. The compound also displayed an AC50 cell viability with HCT116 [2] of 6.61 µM.
As for `COc1cc(N[S+](C)(=O)[O-])ccc1Nc1c2ccccc2nc2ccccc12` [Amsacrine], the efficacy in the test on HCT116 [1] was -124%. The compound also came in with an AC50 cell viability in the test on HCT116 [2] of 11.8 µM.
For `S=C(NCc1ccc2c(c1)OCO2)N1CCN(c2ncnc3c2oc2ccccc23)CC1` [Amuvatinib], the efficacy in the test on HCT116 [1] was -38.8%. The compound further came in with an AC50 cell viability in the test on HCT116 [2] of 1.86 µM.
For `C=C1CCC2[C@](C)(CO)C(O)CC[C@]2(C)C1C/C=C1/C(=O)OCC1O` (some centres undefined) [Andrographolide] the same measures were -65.7% and 7.42 µM.
Consider `C=C1CC[C@@H]2[C@](C)(CO)[C@H](O)CC[C@@]2(C)[C@@H]1C/C=C1/C(=O)OC[C@H]1O` [Andrographolide], for which the efficacy with HCT116 [1] was -68.1%. The compound further registered an AC50 cell viability in the test with HCT116 [2] of 4.68 µM.
With `COc1cc2c(Oc3ccc4[nH]c(C)cc4c3F)ccnc2cc1OCC1(N)CC1` [Anlotinib], the efficacy with HCT116 [1] is -112%. Further, in the test on HCT116 [2], the AC50 cell viability is 16.6 µM.
For the compound `Cc1cccc(/C=N/Nc2cc(N3CCOCC3)nc(OCCc3ccccn3)n2)c1` [Apilimod], in the test on HCT116 [1], the efficacy is -99.4%. The same compound yielded an AC50 cell viability with HCT116 [2] of 1.18 µM.
In the same order, the values of `CCOC(=O)c1c(CSc2ccccc2)n(C)c2cc(Br)c(O)c(CN(C)C)c12` [Arbidol] are -75.8% and 14.8 µM.
Consider `CC/1=C/C[C@]23O[C@@]2(C)CC[C@@H]4[C@H](OC(=O)C4=C)[C@@H]13` [Arglabin], for which the efficacy in the test on HCT116 [1] was -79%. The AC50 cell viability in the test with HCT116 [2] came to 14.8 µM.
As for `O=C1CCc2ccc(OCCCCN3CCN(c4cccc(Cl)c4Cl)CC3)cc2N1` [Aripiprazole], the efficacy in the test with HCT116 [1] was -93.8%. In the test on HCT116 [2], this compound registered an AC50 cell viability of 18.6 µM.
For the compound `C[C@@H]1CC[C@H]2[C@@H](C)C(=O)O[C@@H]3O[C@@]4(C)CC[C@@H]1[C@]32OO4` [Artemisinin], in the test on HCT116 [1], the efficacy was -30.7%. In addition, in the test on HCT116 [2], the AC50 cell viability stood at 0.0295 µM.
As for `C[C@H]1[C@H](O)O[C@@H]2O[C@@]3(C)CC[C@H]4[C@H](C)CC[C@@H]1[C@@]24OO3` [Artenimol], the efficacy in the test with HCT116 [1] is -78.7%. In the test on HCT116 [2], the AC50 cell viability was 2.63 µM.
Regarding `C[C@H]1[C@H](OC(=O)CCC(=O)O)O[C@@H]2O[C@@]3(C)CC[C@H]4[C@H](C)CC[C@@H]1[C@@]24OO3` [Artesunate], the efficacy in the test with HCT116 [1] is -62.6%. In the test on HCT116 [2], the AC50 cell viability was 4.17 µM.
For `O=C(Nc1ccc(OC(F)(F)Cl)cc1)c1cnc(N2CC[C@@H](O)C2)c(-c2ccn[nH]2)c1` [Asciminib] the same measures were -80.6% and 20.9 µM.
For the compound `O=C(Nc1ccc([S+](=O)([O-])N2CCOCC2)cc1)c1cc(Cl)ccc1N[S+](=O)([O-])c1ccc(Cl)s1` [Ataciguat], the efficacy with HCT116 [1] was -76%. Besides, in the test with HCT116 [2], the AC50 cell viability was 23.5 µM.
Consider `CCCC1(CCC)CCC2(CCN(CCCN(CC)CC)C2)CC1` [Atiprimod], for which the efficacy with HCT116 [1] was -99.3%. The compound also came in with an AC50 cell viability in the test with HCT116 [2] of 2.63 µM.
On to `CC(C)c1c(C(=O)Nc2ccccc2)c(-c2ccccc2)c(-c2ccc(F)cc2)n1CC[C@@H](O)C[C@@H](O)CC(=O)O` [Atorvastatin calcium], for which the efficacy with HCT116 [1] was -63.9%. For the same compound, the AC50 cell viability with HCT116 [2] worked out at 12.9 µM.
For `COc1ccc(CC2c3cc(OC)c(OC)cc3CC[N+]2(C)CCC(=O)OCCCCCOC(=O)CC[N+]2(C)CCc3cc(OC)c(OC)cc3C2Cc2ccc(OC)c(OC)c2)cc1OC` (centres undefined) [Atracurium besylate] the same measures were -77.8% and 23.5 µM.
Consider `COc1cc(F)ccc1-c1ncnc(Nc2cccc(C[S+](C)(=N)[O-])c2)n1` (centres undefined) [Atuveciclib], for which the efficacy in the test on HCT116 [1] is -68%. Besides, the AC50 cell viability with HCT116 [2] was 0.468 µM.
On to `CC[P](CC)(CC)=[Au][S][C@@H]1O[C@H](COC(C)=O)[C@@H](OC(C)=O)[C@H](OC(C)=O)[C@H]1OC(C)=O` [Auranofin], for which the efficacy with HCT116 [1] was -100%. In addition, in the test on HCT116 [2], the AC50 cell viability came to 2.63 µM.
With `CCN1CCN(C(=O)Cc2ccc(Nc3ncc(F)c(Nc4ccc(C(=O)Nc5ccccc5Cl)cc4)n3)cc2)CC1` [Aurora A Inhibitor I], the efficacy in the test with HCT116 [1] is -105%. This compound yielded an AC50 cell viability in the test on HCT116 [2] of 7.42 µM.
In the same order, the values of `CC(C)c1cc(C(C)C)c(CC(=O)N[S+](=O)([O-])Oc2c(C(C)C)cccc2C(C)C)c(C(C)C)c1` [Avasimibe] are -82.3% and 14.8 µM.
As to `C=CC(=O)Nc1cccc(Oc2nc(Nc3ccc(N4CCN(C)CC4)c(F)c3)nc3[nH]ccc23)c1` [Avitinib], in the test on HCT116 [1], the efficacy was -123%. For the same compound, in the test on HCT116 [2], the AC50 cell viability was found to be 13.2 µM.
